Among the data in patent US9024044B2, “Heteroarylcarboxylic acid ester derivative” (Ajinomoto Co., Inc., priority 2012, dated 2015) are Ki values, retold here.

Format in all cases: biochemical
In assay [1] the target is recombinant human enteropeptidase (Homo sapiens (Human), UniProt P98073). Nature of the assay: Measurement of enteropeptidase inhibitory activity. As to conditions: substrate Gly-Asp-Asp-Asp-Asp-Lys-β-Naphtylamide, Tris-HCl pH 8.0, Dixon plot. On the procedure: Measurement of Enteropeptidase Inhibitory Activity
Sequence of recombinant human enteropeptidase (P98073 whole entry): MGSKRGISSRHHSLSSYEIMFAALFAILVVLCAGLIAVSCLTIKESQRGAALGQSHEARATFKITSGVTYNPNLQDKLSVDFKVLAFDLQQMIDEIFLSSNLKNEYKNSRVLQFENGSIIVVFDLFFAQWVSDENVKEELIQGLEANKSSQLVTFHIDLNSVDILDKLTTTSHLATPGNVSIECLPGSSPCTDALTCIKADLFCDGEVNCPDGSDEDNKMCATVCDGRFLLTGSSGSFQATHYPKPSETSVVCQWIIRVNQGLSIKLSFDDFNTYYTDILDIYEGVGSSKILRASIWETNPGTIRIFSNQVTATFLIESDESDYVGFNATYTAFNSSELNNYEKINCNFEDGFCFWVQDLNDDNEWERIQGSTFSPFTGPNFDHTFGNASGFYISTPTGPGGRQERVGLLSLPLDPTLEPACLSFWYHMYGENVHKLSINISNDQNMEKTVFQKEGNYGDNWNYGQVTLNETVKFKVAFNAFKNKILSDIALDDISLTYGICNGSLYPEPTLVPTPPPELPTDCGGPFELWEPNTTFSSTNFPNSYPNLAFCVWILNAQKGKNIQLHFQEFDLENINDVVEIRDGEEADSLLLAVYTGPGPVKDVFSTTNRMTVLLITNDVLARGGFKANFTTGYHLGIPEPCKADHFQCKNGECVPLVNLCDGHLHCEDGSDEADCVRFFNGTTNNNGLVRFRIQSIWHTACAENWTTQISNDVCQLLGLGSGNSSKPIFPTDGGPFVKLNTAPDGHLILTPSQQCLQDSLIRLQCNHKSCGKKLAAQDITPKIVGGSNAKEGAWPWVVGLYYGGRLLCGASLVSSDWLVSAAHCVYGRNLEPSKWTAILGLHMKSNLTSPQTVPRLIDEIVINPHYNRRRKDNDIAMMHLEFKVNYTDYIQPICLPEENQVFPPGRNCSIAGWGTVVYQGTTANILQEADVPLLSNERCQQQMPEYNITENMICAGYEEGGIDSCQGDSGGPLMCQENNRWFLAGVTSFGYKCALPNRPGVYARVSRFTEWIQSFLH
Using a 96 well plate (#3915, Costar), a test compound (25 μL), 400 mM Tris-HCl buffer (pH 8.0, 25 μL) and 0.5 mg/mL fluorescence enzyme substrate (Gly-Asp-Asp-Asp-Asp-Lys-β-Naphtylamide, 25 μL) were mixed, and recombinant human enteropeptidase (R&D Systems, Inc., 25 μL) was added. Using a fluorescence plate reader fmax (Molecular Devices, Inc.), the reaction rate was measured from the time-course changes at excitation wavelength 320 nm and fluorescence wavelength 405 nm. The Ki value was calculated from the concentration of the test compound, reciprocal of reaction rate, and Km value of the enzyme substrate, and by using Dixon plot.

Assay [2] concerns the target human trypsin. Description: Measurement of trypsin inhibitory activity. The following applies: substrate Boc-Phe-Ser-Arg-AMC, Tris-HCl pH 8.0, Dixon plot. On the procedure: (§1) Measurement of Trypsin Inhibitory Activity
(§2) Using a 96 well plate (#3915, Costar), a test compound (25 μL) was mixed with 20 μM fluorescence enzyme substrate (Boc-Phe-Ser-Arg-AMC, 50 μL) mixed with 200 mM Tris-HCl buffer (pH 8.0), and human trypsin (Sigma, 25 μL) was added. Using a fluorescence plate reader fmax (Molecular Devices, Inc.), the reaction rate was measured from the time-course changes at excitation wavelength 355 nm and fluorescence wavelength 460 nm. The Ki value was calculated from the concentration of the test compound, reciprocal of reaction rate, and Km value of the enzyme substrate, and by using Dixon plot.

Assay [3] addresses human trypsin (Homo sapiens, UniProt P07477). Description: Measurement of trypsin inhibitory activity. As to conditions: substrate Boc-Phe-Ser-Arg-AMC, Tris-HCl pH 8.0, Dixon plot. On the procedure: as §1, §2

Structures are written as SMILES. Counter-ions that a name gives are not always drawn.

For orientation: Ki means a dissociation constant, usually derived from enzyme kinetics or from competition with a known ligand.

In the case of `CC(C)(Cc1ccc(C(=O)Oc2ccc(C(=N)N)cc2F)s1)C(=O)NCC(=O)O` [Compound 3], the results for the Ki (in assay [1]; on human trypsin [2]) were 0.29 nM and 0.42 nM, respectively.
Taken in the same sequence, the figures for `CCCN(CC(=O)O)C(=O)C(C)(C)Cc1ccc(C(=O)Oc2ccc(C(=N)N)cc2F)s1` [Compound 10, N-{3-[5-(4-amidino-2-fluoro-phenoxycarbonyl)thiophen-2-yl]-2,2-dimethylpropionyl}-N-propylglycine hydrochloride] were 0.49 nM and 1.5 nM.
Regarding `CCC(CC)(Cc1ccc(C(=O)Oc2ccc(C(=N)N)cc2F)s1)C(=O)N[C@H](C(=O)O)C(C)C` [Compound 13], the Ki was 1.56 nM in assay [1] and 5.18 nM on human trypsin [2].
Taken in the same sequence, the figures for `CCC(CC)(Cc1ccc(C(=O)Oc2ccc(C(=N)N)cc2F)s1)C(=O)N[C@@H](Cc1ccccc1)C(=O)O` [Compound 16] were 1.1 nM and 8.3 nM.
Regarding `C=CCN(CCS(=O)(=O)O)C(=O)C(C)(C)Cc1ccc(C(=O)Oc2ccc(C(=N)N)cc2F)s1` [Compound 23, N-allyl-N-{3-[5-(4-amidino-2-fluoro-phenoxycarbonyl)-thiophen-2-yl]-2,2-dimethylpropionyl}taurine], the Ki is 1.81 nM in assay [1] and 3.17 nM on human trypsin [2].
For `CC[C@H](NC(=O)C(CC)(CC)Cc1ccc(C(=O)Oc2ccc(C(=N)N)cc2F)s1)C(=O)O` [Compound 28], the Ki in assay [1] turned out to be 0.65 nM; at human trypsin [2], 1.93 nM.
As for `CCC[C@H](NC(=O)C(CC)(CC)Cc1ccc(C(=O)Oc2ccc(C(=N)N)cc2F)s1)C(=O)O` [Compound 29], the Ki was 1.18 nM in assay [1] and 3.84 nM at human trypsin [2].
Taken in the same sequence, the figures for `CCC(CC)(Cc1ccc(C(=O)Oc2ccc(C(=N)N)cc2F)s1)C(=O)NCCCC(=O)O` [Compound 30] were 0.94 nM and 2.73 nM.
The matching figures for `CC(C)(Cc1ccc(C(=O)Oc2ccc(C(=N)N)cc2F)s1)C(=O)Nc1ccc(C(=O)O)cc1` [Compound 31]: 1.08 nM and 2.89 nM.
Taken in the same sequence, the figures for `CC(C)(Cc1ccc(C(=O)Oc2ccc(C(=N)N)cc2F)s1)C(=O)Nc1cccc(C(=O)O)c1` [Compound 32] were 1.43 nM and 0.7 nM.
Take `CCC(CC)(Cc1ccc(C(=O)Oc2ccc(C(=N)N)cc2F)s1)C(=O)N[C@@H]1COC(=O)C1` [Compound 34]: the results for the Ki (in assay [1]; on human trypsin [2]) were 2.56 nM and 2.73 nM, respectively.
The matching figures for `CC(C)(Cc1ccc(C(=O)Oc2ccc(C(=N)N)cc2F)s1)C(=O)N1CCC[C@H]1CC(=O)O` [Compound 41]: 1.58 nM and 3.88 nM.
The matching figures for `CCC(CC)(Cc1ccc(C(=O)Oc2ccc(C(=N)N)cc2F)s1)C(=O)N[C@H](CCC(=O)O)C(=O)O` [Compound 43]: 0.42 nM and 1.96 nM.
Regarding `CCC(CC)(Cc1ccc(C(=O)Oc2ccc(C(=N)N)cc2F)s1)C(=O)N[C@@H](CC(N)=O)C(=O)O` [Compound 44], the Ki in assay [1] amounted to 0.67 nM; at human trypsin [2], 1.69 nM.
With `CC(C)(Cc1ccc(C(=O)Oc2ccc(C(=N)N)cc2F)s1)C(=O)Nc1ccc(O)c(C(=O)O)c1` [Compound 47], the Ki in assay [1] was 0.53 nM; on human trypsin [2], 0.92 nM.
`CC[C@H](C)[C@@H](CC(=O)O)NC(=O)C(CC)(CC)Cc1ccc(C(=O)Oc2ccc(C(=N)N)cc2F)s1` [Compound 49, N-{3-[5-(4-amidino-2-fluoro-phenoxycarbonyl)thiophen-2-yl]-2,2-diethylpropionyl}-beta-homoisoleucine hydrochloride]: the Ki in assay [1] turned out to be 3.26 nM; on human trypsin [2], 1.97 nM.
Consider `CCC(CC)(Cc1ccc(C(=O)Oc2ccc(C(=N)N)cc2F)s1)C(=O)NCc1ccc(C(=O)O)cc1` [Compound 53], for which the Ki came out at 2.69 nM in assay [1] and 9.27 nM on human trypsin [2].
Taken in the same sequence, the figures for `CC(C)(Cc1ccc(C(=O)Oc2ccc(C(=N)N)cc2F)s1)C(=O)NC1(C(=O)O)CCC1` [Compound 56] were 0.51 nM and 1.49 nM.
Taken in the same sequence, the figures for `CC(C)(Cc1ccc(C(=O)Oc2ccc(C(=N)N)cc2F)s1)C(=O)NC1(C(=O)O)CC1` [Compound 57] were 0.67 nM and 1.01 nM.
As to `CCC(CC)(Cc1ccc(C(=O)Oc2ccc(C(=N)N)cc2F)s1)C(=O)NCCCCC(=O)O` [Compound 62], the Ki in assay [1] came out at 0.98 nM; on human trypsin [2], 5.17 nM.
Consider `CC(C)(Cc1ccc(C(=O)Oc2ccc(C(=N)N)cc2F)s1)C(=O)NCCC#N` [Compound 63], for which the results for the Ki (in assay [1]; on human trypsin [2]) were 2.9 nM and 3.65 nM, respectively.
In the case of `CC(C)(Cc1ccc(C(=O)Oc2ccc(C(=N)N)cc2F)s1)C(=O)NCc1nnn[nH]1` [Compound 65], the Ki in assay [1] came out at 0.53 nM; on human trypsin [2] it was 0.75 nM.
Regarding `CC(C)(Cc1ccc(C(=O)Oc2ccc(C(=N)N)cc2F)s1)C(=O)Nc1ccc(C(=O)O)c(C(=O)O)c1` [Compound 68], the Ki came out at 0.24 nM in assay [1] and 0.21 nM on human trypsin [3].
The matching figures for `CC(C)(Cc1ccc(C(=O)Oc2ccc(C(=N)N)cc2F)s1)C(=O)N[C@@H](C(=O)O)c1ccc(O)cc1` [Compound 69]: 0.72 nM and 1.14 nM.
Taken in the same sequence, the figures for `CC(C)(Cc1ccc(C(=O)Oc2ccc(C(=N)N)cc2F)s1)C(=O)N[C@H]1CC[C@@H](C(=O)O)CC1` [Compound 70] were 1.11 nM and 1.7 nM.
For the molecule `CCC(CC)(Cc1ccc(C(=O)Oc2ccc(C(=N)N)cc2F)s1)C(=O)NCCCCCC(=O)O` [Compound 71], the Ki is 4.97 nM in assay [1] and 8.01 nM at human trypsin [3].
Taken in the same sequence, the figures for `CC(C)(Cc1ccc(C(=O)Oc2ccc(C(=N)N)cc2F)s1)C(=O)N1CC(C(=O)O)C1` [Compound 72] were 0.63 nM and 1.85 nM.
For `CC(C)(Cc1ccc(C(=O)Oc2ccc(C(=N)N)cc2F)s1)C(=O)Nc1ccccc1C(=O)O` [Compound 73], the Ki in assay [1] stood at 2.41 nM; on human trypsin [3], 3.65 nM.
The matching figures for `CC(C)(Cc1ccc(C(=O)Oc2ccc(C(=N)N)cc2F)s1)C(=O)Nc1cc(C(=O)O)ccc1C(=O)O` [Compound 75]: 0.39 nM and 3.72 nM.
Take `CC(C)(Cc1ccc(C(=O)Oc2ccc(C(=N)N)cc2F)s1)C(=O)N(CC(=O)O)CC1CC1` [Compound 76]: the Ki in assay [1] turned out to be 0.67 nM; at human trypsin [2], 2.01 nM.
The matching figures for `CCC(CC)(Cc1ccc(C(=O)Oc2ccc(C(=N)N)cc2F)s1)C(=O)NCC(=O)NCC(=O)O` [Compound 77]: 0.69 nM and 1.42 nM.
With `CC(C)(Cc1ccc(C(=O)Oc2ccc(C(=N)N)cc2F)s1)C(=O)N[C@H]1CC[C@H](C(=O)O)CC1` [Compound 78], the results for the Ki (in assay [1]; on human trypsin [3]) were 1.53 nM and 2.57 nM, respectively.
The matching figures for `CCC(CC)(Cc1ccc(C(=O)Oc2ccc(C(=N)N)cc2F)s1)C(=O)NC1(C(=O)O)CC1` [Compound 79]: 1.12 nM and 2.19 nM.
Turning to `CCC(CC)(Cc1ccc(C(=O)Oc2ccc(C(=N)N)cc2F)s1)C(=O)NC1(C(=O)O)CCC1` [Compound 80], the Ki in assay [1] was 1.33 nM; on human trypsin [2], 4.67 nM.
Regarding `CCC(CC)(Cc1ccc(C(=O)Oc2ccc(C(=N)N)cc2F)s1)C(=O)NCc1nnn[nH]1` [Compound 81], the Ki in assay [1] turned out to be 1.2 nM; at human trypsin [2], 3.54 nM.
